Measured values published in the supplement of paper PMC10307832.

Assays:
Assay in all cases: relative viability (nuclei count vs DMSO), 5 days (fraction); higher = more cells survive
Silmitasertib = compound: O=C(O)c1ccc2c(c1)nc(Nc1cccc(Cl)c1)c1ccncc12 [Silmitasertib]
Outline: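 On vehicle-anchored 1536-well plates, lung cancer cell lines held overnight at 37 °C were pinned with five library-drug doses (not always all listed) spaced by √10. With no medium change over 5 days, they were then fixed, permeabilised and Hoechst-stained in one step and imaged at 4×. MetaXpress counted nuclei, and viability is the median across plates of treated-well over vehicle-well nuclei. Acceptance needed control CV below 25% and at least one doubling.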

[1] = compound: O=C(O)c1ccc2c(c1)nc(Nc1cccc(Cl)c1)c1ccncc12 [Silmitasertib] + N=C(N)NC(=N)NCCc1ccccc1 [Phenformin] (partner 250 µM)
Outline: (§1)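 After 5 days of treatment, lung cancer cells in 1536-well plates were fixed and stained in a single step (final 0.05% Triton X-100, 1% formaldehyde, 1 ug/ml Hoechst) and their nuclei counted on 4× images. Treatment had been applied by pin tool the day after seeding as one drug alone or as a fixed anchor-drug dose with five library-drug doses (not always all listed) in √10 steps. Relative viability is the nuclei count of treated wells divided by that of vehicle wells, and values are medians of duplicate plates.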

[2] = compound: O=C(O)c1ccc2c(c1)nc(Nc1cccc(Cl)c1)c1ccncc12 [Silmitasertib] + COc1cc2c(Oc3ccc(NC(=O)C4(C(=O)Nc5ccc(F)cc5)CC4)cc3F)ccnc2cc1OCCCN1CCOCC1 [Foretinib] (partner 0.25 µM)
Outline: as §1

[3] = compound: O=C(O)c1ccc2c(c1)nc(Nc1cccc(Cl)c1)c1ccncc12 [Silmitasertib] + Cc1nc(Nc2ncc(C(=O)Nc3c(C)cccc3Cl)s2)cc(N2CCN(CCO)CC2)n1 [Dasatinib] (partner 0.075 µM)
Outline: as §1

[4] = compound: O=C(O)c1ccc2c(c1)nc(Nc1cccc(Cl)c1)c1ccncc12 [Silmitasertib] + CCNC(=O)c1noc(-c2cc(C(C)C)c(O)cc2O)c1-c1ccc(CN2CCOCC2)cc1 [Luminespib] (partner 0.01 µM)
Outline: as §1

[5] = compound: O=C(O)c1ccc2c(c1)nc(Nc1cccc(Cl)c1)c1ccncc12 [Silmitasertib] + Cc1cc(Nc2cc(N3CCN(C)CC3)nc(Sc3ccc(NC(=O)C4CC4)cc3)n2)n[nH]1 [Tozasertib] (partner 0.1 µM)
Outline: as §1

Silmitasertib + OSI-027 = compound: O=C(O)c1ccc2c(c1)nc(Nc1cccc(Cl)c1)c1ccncc12 [Silmitasertib] + COc1cccc2cc(-c3nc([C@H]4CC[C@H](C(=O)O)CC4)n4ncnc(N)c34)[nH]c12 [OSI-027] (partner 0.5 µM)
Outline: as §1

[6] = compound: O=C(O)c1ccc2c(c1)nc(Nc1cccc(Cl)c1)c1ccncc12 [Silmitasertib] + CS(=O)(=O)N1CCN(Cc2cc3nc(-c4cccc5[nH]ncc45)nc(N4CCOCC4)c3s2)CC1 [Pictilisib] (partner 1 µM)
Outline: as §1

[7] = compound: O=C(O)c1ccc2c(c1)nc(Nc1cccc(Cl)c1)c1ccncc12 [Silmitasertib] + CC1(C)CCC(c2ccc(Cl)cc2)=C(CN2CCN(c3ccc(C(=O)NS(=O)(=O)c4ccc(N[C@H](CCN5CCOCC5)CSc5ccccc5)c(S(=O)(=O)C(F)(F)F)c4)cc3)CC2)C1 [Navitoclax] (partner 0.5 µM)
Outline: as §1

Silmitasertib + Olaparib = compound: O=C(O)c1ccc2c(c1)nc(Nc1cccc(Cl)c1)c1ccncc12 [Silmitasertib] + O=C(c1cc(Cc2n[nH]c(=O)c3ccccc23)ccc1F)N1CCN(C(=O)C2CC2)CC1 [Olaparib] (partner 8 µM)
Outline: as §1

[8] = compound: O=C(O)c1ccc2c(c1)nc(Nc1cccc(Cl)c1)c1ccncc12 [Silmitasertib] + CS(=O)(=O)CCNCc1ccc(-c2ccc3ncnc(Nc4ccc(OCc5cccc(F)c5)c(Cl)c4)c3c2)o1 [Lapatinib] (partner 2 µM)
Outline: as §1

[9] = compound: O=C(O)c1ccc2c(c1)nc(Nc1cccc(Cl)c1)c1ccncc12 [Silmitasertib] + C[C@@H](Oc1cc(-c2cnn(C3CCNCC3)c2)cnc1N)c1c(Cl)ccc(F)c1Cl [Crizotinib] (partner 1 µM)
Outline: as §1

[10] = compound: O=C(O)c1ccc2c(c1)nc(Nc1cccc(Cl)c1)c1ccncc12 [Silmitasertib] + C[C@]1(O)C[C@@H](c2nc(-c3ccc4ccc(-c5ccccc5)nc4c3)c3c(N)nccn32)C1 [Linsitinib] (partner 1 µM)
Outline: as §1

[11] = compound: O=C(O)c1ccc2c(c1)nc(Nc1cccc(Cl)c1)c1ccncc12 [Silmitasertib] + Nc1ncn([C@H]2C[C@H](O)[C@@H](CO)O2)c(=O)n1 [Decitabine] (partner 2 µM)
Outline: as §1

[12] = compound: O=C(O)c1ccc2c(c1)nc(Nc1cccc(Cl)c1)c1ccncc12 [Silmitasertib] + Cc1nc(NC(=O)N2CCC[C@H]2C(N)=O)sc1-c1ccnc(C(C)(C)C(F)(F)F)c1 [Alpelisib] (partner 2 µM)
Outline: as §1

[13] = compound: O=C(O)c1ccc2c(c1)nc(Nc1cccc(Cl)c1)c1ccncc12 [Silmitasertib] + CC(C)C[C@H](NC(=O)[C@H](Cc1ccccc1)NC(=O)c1cnccn1)B(O)O [Bortezomib] (partner 0.002 µM)
Outline: as §1

Work on NCI-H1623 yielded a relative viability (Silmitasertib; 0.04 µM) of 1.03, a relative viability (Silmitasertib; 0.4 µM) of 0.715 and a relative viability (Silmitasertib; 1.265 µM) of 0.689. For the same cell line, the relative viability (Silmitasertib; 4 µM) was 0.693, the relative viability ([1]; first compound 0.04 µM) was 0.563 and the relative viability ([1]; first compound 0.4 µM) was 0.498. The relative viability ([1]; first compound 1.265 µM) was 0.446, the relative viability ([1]; first compound 4 µM) was 0.382 and the relative viability ([2]; first compound 0.04 µM) was 0.934. For the same cell line, the relative viability ([2]; first compound 0.4 µM) was 0.572, the relative viability ([2]; first compound 1.265 µM) was 0.49 and the relative viability ([2]; first compound 4 µM) was 0.536. The relative viability ([3]; first compound 0.04 µM) was 0.576, the relative viability ([3]; first compound 0.4 µM) was 0.456 and the relative viability ([3]; first compound 1.265 µM) was 0.297. For the same cell line, the relative viability ([3]; first compound 4 µM) was 0.361, the relative viability ([4]; first compound 0.04 µM) was 0.46 and the relative viability ([4]; first compound 0.4 µM) was 0.4. The relative viability ([4]; first compound 1.265 µM) was 0.355, the relative viability ([4]; first compound 4 µM) was 0.343 and the relative viability ([5]; first compound 0.04 µM) was 0.422. It also gave a relative viability ([5]; first compound 0.4 µM) of 0.392, a relative viability ([5]; first compound 1.265 µM) of 0.36 and a relative viability ([5]; first compound 4 µM) of 0.371. The relative viability (Silmitasertib + OSI-027; first compound 0.04 µM) was 0.347, the relative viability (Silmitasertib + OSI-027; first compound 0.4 µM) was 0.385 and the relative viability (Silmitasertib + OSI-027; first compound 1.265 µM) was 0.368. For the same cell line, the relative viability (Silmitasertib + OSI-027; first compound 4 µM) was 0.357.

With A549 the relative viability (Silmitasertib; 0.04 µM) was 1.03, the relative viability (Silmitasertib; 0.4 µM) was 0.994 and the relative viability (Silmitasertib; 1.265 µM) was 1. It also gave a relative viability (Silmitasertib; 4 µM) of 0.882, a relative viability ([6]; first compound 0.04 µM) of 0.582 and a relative viability ([6]; first compound 0.4 µM) of 0.566. For the same cell line, the relative viability ([6]; first compound 1.265 µM) was 0.497, the relative viability ([6]; first compound 4 µM) was 0.513 and the relative viability ([7]; first compound 0.04 µM) was 1.44. The relative viability ([7]; first compound 0.4 µM) was 1.16, the relative viability ([7]; first compound 1.265 µM) was 1.27 and the relative viability ([7]; first compound 4 µM) was 1.04. For the same cell line, the relative viability ([1]; first compound 0.04 µM) was 0.237, the relative viability ([1]; first compound 0.4 µM) was 0.131 and the relative viability ([1]; first compound 1.265 µM) was 0.121. For the same cell line, the relative viability ([1]; first compound 4 µM) was 0.161, the relative viability ([2]; first compound 0.04 µM) was 0.961 and the relative viability ([2]; first compound 0.4 µM) was 0.819. It also gave a relative viability ([2]; first compound 1.265 µM) of 0.952, a relative viability ([2]; first compound 4 µM) of 0.858 and a relative viability (Silmitasertib + Olaparib; first compound 0.04 µM) of 0.301. The relative viability (Silmitasertib + Olaparib; first compound 1.265 µM) was 0.273, the relative viability (Silmitasertib + Olaparib; first compound 4 µM) was 0.12 and the relative viability ([8]; first compound 0.04 µM) was 1.23. The relative viability ([8]; first compound 0.4 µM) was 1.08, the relative viability ([8]; first compound 1.265 µM) was 0.781 and the relative viability ([8]; first compound 4 µM) was 0.736. For the same cell line, the relative viability ([9]; first compound 0.04 µM) was 0.819, the relative viability ([9]; first compound 0.4 µM) was 0.677 and the relative viability ([9]; first compound 1.265 µM) was 0.777. The relative viability ([9]; first compound 4 µM) was 0.748, the relative viability ([10]; first compound 0.04 µM) was 0.792 and the relative viability ([10]; first compound 1.265 µM) was 0.507. It also gave a relative viability ([10]; first compound 4 µM) of 0.678, a relative viability ([11]; first compound 0.04 µM) of 0.244 and a relative viability ([11]; first compound 1.265 µM) of 0.27. The relative viability ([11]; first compound 4 µM) was 0.158, the relative viability ([12]; first compound 0.04 µM) was 1.02 and the relative viability ([12]; first compound 0.4 µM) was 0.918. For the same cell line, the relative viability ([12]; first compound 1.265 µM) was 0.828 and the relative viability ([12]; first compound 4 µM) was 0.869.

Work on NCI-H1299 yielded a relative viability (Silmitasertib; 0.04 µM) of 1.05, a relative viability (Silmitasertib; 0.4 µM) of 1.03 and a relative viability (Silmitasertib; 1.265 µM) of 0.945. For the same cell line, the relative viability (Silmitasertib; 4 µM) was 0.834, the relative viability ([13]; first compound 0.04 µM) was 1.08 and the relative viability ([13]; first compound 0.4 µM) was 1.01. For the same cell line, the relative viability ([13]; first compound 1.265 µM) was 0.988, the relative viability ([13]; first compound 4 µM) was 1.04 and the relative viability ([6]; first compound 0.04 µM) was 1.07. It also gave a relative viability ([6]; first compound 0.4 µM) of 0.559, a relative viability ([6]; first compound 1.265 µM) of 0.343 and a relative viability ([6]; first compound 4 µM) of 0.277. For the same cell line, the relative viability ([7]; first compound 0.04 µM) was 1.1, the relative viability ([7]; first compound 0.4 µM) was 1.02 and the relative viability ([7]; first compound 1.265 µM) was 1.06. It also gave a relative viability ([7]; first compound 4 µM) of 1.05, a relative viability ([2]; first compound 0.04 µM) of 1.19 and a relative viability ([2]; first compound 0.4 µM) of 1.08. The relative viability ([2]; first compound 1.265 µM) was 1.02, the relative viability ([2]; first compound 4 µM) was 1.13 and the relative viability (Silmitasertib + Olaparib; first compound 0.04 µM) was 0.946. It also gave a relative viability (Silmitasertib + Olaparib; first compound 0.4 µM) of 1.02, a relative viability (Silmitasertib + Olaparib; first compound 1.265 µM) of 0.872 and a relative viability (Silmitasertib + Olaparib; first compound 4 µM) of 0.803. The relative viability ([8]; first compound 0.04 µM) was 0.989, the relative viability ([8]; first compound 0.4 µM) was 0.949 and the relative viability ([8]; first compound 1.265 µM) was 0.894. For the same cell line, the relative viability ([8]; first compound 4 µM) was 0.804, the relative viability ([9]; first compound 0.04 µM) was 0.956 and the relative viability ([9]; first compound 0.4 µM) was 0.99. The relative viability ([9]; first compound 1.265 µM) was 0.994, the relative viability ([9]; first compound 4 µM) was 0.764 and the relative viability ([10]; first compound 0.04 µM) was 0.96. For the same cell line, the relative viability ([10]; first compound 0.4 µM) was 1.01, the relative viability ([10]; first compound 1.265 µM) was 0.901 and the relative viability ([10]; first compound 4 µM) was 0.587. The relative viability ([12]; first compound 0.04 µM) was 1.08, the relative viability ([12]; first compound 0.4 µM) was 1.04 and the relative viability ([12]; first compound 1.265 µM) was 1.02. For the same cell line, the relative viability ([12]; first compound 4 µM) was 0.826.
